The record followed here is ChEMBL document CHEMBL4627280, “Discovery of disubstituted xylylene derivatives as small molecule direct inhibitors of Keap1-Nrf2 protein-protein interaction” (Bioorg Med Chem, 2020).

For orientation: IC50 means the midpoint of a concentration-inhibition curve.

A short description of series [1]: Metabolic stability in human liver microsomes assessed as parent compound remaining at 0.1 mM measured after 90 mins by LC/MS analysis. It is filed as ADME, Microsome. The following applies: read-out: Stability. Background: Microsomes from liver hold many membrane-bound enzymes, among them those of drug oxidation.
The target in series [2] is Kelch-like ECH-associated protein 1 (Homo sapiens, UniProt Q14145). Put plainly: Inhibition of FITC-LDEETGEFL-NH2 binding to recombinant human Keap1 Kelch domain (321 to 609 residues) expressed in Escherichia Coli BL21(DE3)pLysS cells centrifuged for 2 mins followed by 30 mins incubation under shaking condition by fluorescence polarization assay. Background: In fluorescence polarisation assays a small probe gives low polarisation when free and higher when bound to something large.
Chain of Kelch-like ECH-associated protein 1 (Q14145 whole entry, the tested form may be a part): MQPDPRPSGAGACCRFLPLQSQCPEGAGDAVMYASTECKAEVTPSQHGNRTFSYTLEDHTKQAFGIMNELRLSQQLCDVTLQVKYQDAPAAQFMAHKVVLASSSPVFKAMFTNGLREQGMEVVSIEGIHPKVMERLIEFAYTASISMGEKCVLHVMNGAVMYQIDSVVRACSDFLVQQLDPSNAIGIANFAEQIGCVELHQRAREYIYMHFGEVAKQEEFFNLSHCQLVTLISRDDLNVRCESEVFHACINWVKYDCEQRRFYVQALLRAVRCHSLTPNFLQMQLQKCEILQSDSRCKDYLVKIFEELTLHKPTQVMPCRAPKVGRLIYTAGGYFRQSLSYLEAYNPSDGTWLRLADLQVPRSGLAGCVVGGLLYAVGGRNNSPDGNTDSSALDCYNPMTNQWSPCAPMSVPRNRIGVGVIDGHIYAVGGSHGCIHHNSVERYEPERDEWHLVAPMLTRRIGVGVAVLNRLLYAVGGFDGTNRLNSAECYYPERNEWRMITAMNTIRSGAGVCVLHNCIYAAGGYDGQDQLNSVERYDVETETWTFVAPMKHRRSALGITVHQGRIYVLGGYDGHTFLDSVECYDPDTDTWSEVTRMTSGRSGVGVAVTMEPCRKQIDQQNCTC

In the case of `COc1ccc(S(=O)(=O)N(CC(=O)O)c2ccc(N(CC(=O)O)S(=O)(=O)c3ccc(OC)cc3)c3ccccc23)cc1`, the remaining at 1.5 h, 100 µM in series [1] was 56.9%.
`COc1ccc(S(=O)(=O)N(CC(=O)O)Cc2ccccc2CN(CC(=O)O)S(=O)(=O)c2ccc(OC)cc2)cc1`: in series [2], the IC50 is 2.3 µM. The remaining at 1.5 h, 100 µM in series [1] was 97.7%.
In the case of `COc1ccc(S(=O)(=O)N(Cc2ccccc2CN([C@@H](C)C(=O)O)S(=O)(=O)c2ccc(OC)cc2)[C@@H](C)C(=O)O)cc1`, the remaining at 1.5 h, 100 µM in series [1] worked out at 98.2%.
